Source: article PMC10281804, “The structural basis of the talin–KANK1 interaction that coordinates the actin and microtubule cytoskeletons at focal adhesions” (Open Biology, 2023)

Key:
[1] = system: KANK1 localization to focal adhesions of NIH3T3 fibroblasts; experiment: KANK1 localization in vin880-expressing cells treated with ROCK inhibitor; assay type: cell-based, mouse
Experimental: NIH3T3 mouse fibroblasts and HEK293T human epithelial cells were obtained from the American Type Culture Collection (ATCC). The vinculin null and WT mouse embryonic fibroblasts (MEFs) originate from the Eileen Adamson laboratory. All cells were maintained in Dulbecco's Modified Eagle Medium (DMEM; Sigma) supplemented with 10% fetal bovine serum (FBS, Gibco), 1% L-glutamine (Sigma) and 1% non-essential amino acids (Sigma). Talin1&2 null cells were cultured in DMEM F-12 (Gibco) supplemented with 10% FBS, 1% L-glutamine, 1% non-essential amino acids and […] HEPES (Sigma). All cells were cultured at 37̊C supplied with 5% CO2 and 95% humidity. Transient transfections were performed using Lipofectamine LTX with Plus Reagent (Invitrogen) to NIH3T3 cells, Lipofectamine 2000 (Invitrogen) to talin null cells, and jetPRIME reagent (Polyplus) to MEFs and HEK293T cells, as per the manufacturer's instructions.
For fixed cell imaging, cells were cultured in glass-bottom dishes (IBL) coated with bovine fibronectin (Sigma) at a final concentration of 10 µg ml^−1. […]
(§1) Images of fixed samples in PBS were acquired at room temperature using an Olympus IX83 inverted microscope equipped with a 60×/1.42 PlanApo N oil objective and a QImaging Retiga R6 CCD camera, controlled by Metamorph software. Samples were illuminated using LEDs (UV/Cyan/Green-Yellow/Red, Lumencor) for fluorescence excitation; a Sedat filter set (DAPI/FITC/TRITC/Cy5, Chroma, 89000) was used.
FIJI-ImageJ [33] software was used to process all images. Cell-matrix adhesion size was quantified as described previously, by subtracting background signal using a rolling ball algorithm, followed by thresholding to select adhesion structures and the Analyze Particles function to quantify adhesions. […] Pearson's correlation coefficient of fluorescence signals (40 × 40 µm^2 square adhesion area) was measured by subtracting the background signal, followed by automatic thresholding and colocalization analysis using the Bioimaging and Optics Platform (BIOP) version JACoP plugin [34]. […]

mCherry–KANK1 = experiment: MTS colocalization of truncated or mutated talin constructs with KANK1; assay type: cell-based, human; conditions: MTS colocalization assay, cBAK-tagged talin constructs
Source text: To examine the effect of these KANK1 mutations on talin interactions in cells, we next used a mitochondrial targeting system (MTS) which we previously used to screen for defined protein–protein interactions. In this assay, one protein is fused to a small peptide sequence from the pro-apoptotic protein BAK (cBAK) which leads to its insertion into the outer membrane of mitochondria. Proteins that interact with the cBAK-tagged protein will get recruited to mitochondria, and this recruitment can be verified either by visualizing colocalization using fluorescence microscopy (figure 4a) or by purification of mitochondria followed by detection of co-precipitates using biochemistry (figure 4b,c). […] To confirm that the interaction was meditated by the R7 domain, we performed the colocalization assays with truncated talin constructs. […]
as §1

Molecule | KANK1 localization (in words) ([1]; NIH3T3 cells expressing vin880 treated with Y-27632) | Pearson's mean correlation coefficient of KANK1/paxillin overlap ([1]; NIH3T3 with GFP–vin880 and mCherry–KANK1, Y-27632 50 µM, 60 min, 20 images (40 × 40 µm^2) per group, ± s.d., water control r = 0.59 ± 0.05, p < 0.001 (Welch's t-test)) | Percentage of belt-positive FAs ([1]; NIH3T3 with GFP–vin880 and mCherry–KANK1, Y-27632 50 µM, 60 min, FAs over 0.3 µm^2, n = 17, ± s.d., water control 17.90 ± 3.27% (n = 28), p < 0.001 (Welch's t-test)) | colocalization of talin construct with KANK1 (mCherry–KANK1)
C[C@@H](N)[C@H]1CC[C@H](C(=O)Nc2ccncc2)CC1 [Y-27632] | KANK1 colocalized with paxillin in FAs throughout the whole FA structure | 0.82 ± 0.04 | 0.02 ± 0.10% | –
GFP–talin1G1404L–cBAK: GFP–talin1–cBAK with the R7 G1404L mutation | – | – | – | prevented colocalization
